These results are taken from patent US10316028B2, “Orexin receptor antagonists” (Heptares Therapeutics Limited, priority 2012, dated 2019).

SMILES strings stand for the structures.

The target in the test is T1, human Orexin-2 receptor (Homo sapiens, UniProt O43614).
T1 construct: expressed in transfected cells; host or cells: HEK293 cells (transient transfection, Genejuice); membranes
T1 sequence (O43614 1-444): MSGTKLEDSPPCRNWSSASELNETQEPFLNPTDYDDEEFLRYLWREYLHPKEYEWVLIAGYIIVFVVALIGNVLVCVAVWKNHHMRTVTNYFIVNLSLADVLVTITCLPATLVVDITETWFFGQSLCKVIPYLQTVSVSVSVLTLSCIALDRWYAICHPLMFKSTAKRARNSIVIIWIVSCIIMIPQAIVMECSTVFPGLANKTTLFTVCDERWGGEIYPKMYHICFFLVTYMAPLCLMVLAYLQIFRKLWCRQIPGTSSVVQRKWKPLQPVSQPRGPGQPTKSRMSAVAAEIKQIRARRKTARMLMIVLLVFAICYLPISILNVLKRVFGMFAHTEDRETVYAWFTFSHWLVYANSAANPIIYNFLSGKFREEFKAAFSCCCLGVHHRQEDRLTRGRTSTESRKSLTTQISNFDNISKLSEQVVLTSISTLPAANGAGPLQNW
Kind of test: 3H-EMPA radioligand binding assay. The note with it: 3H-EMPA displacement, membranes of HEK293 cells transfected with human Orexin-2 receptor; KI by Cheng-Prussoff; read-out: OX2 pKi ave (converted). In short, it runs like this:
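Membranes from HEK293 cells transiently transfected with human orexin-2 receptor cDNA, assayed with [3H]EMPA. Bound ligand collected on PEI-treated GF/B filters and counted by scintillation; IC50 from inhibition curves, Ki by Cheng-Prusoff.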
In the case of `COc1ccc(N2C(=O)N(Cc3ccc(Cl)cc3F)c3ccncc3S2(=O)=O)cc1OC` [Example 92, 4-(4-Chloro-2-fluorobenzyl)-2-(3,4-dimethoxyphenyl)-2H-pyrido[4,3-e][1,2,4]thiadiazin-3(4H)-one 1,1-dioxide], the Ki is 741 nM. As for `COc1ccc(N2C(=O)N(Cc3c(F)cc(F)cc3F)c3ncccc3S2(=O)=O)cc1OC` [Example 93, 2-(3,4-Dimethoxyphenyl)-4-(2,4,6-trifluorobenzyl)-2H-pyrido[2,3-e][1,2,4]thiadiazin-3(4H)-one 1,1-dioxide], the Ki was 1.2 nM. Next, `COc1ccc(N2C(=O)N(Cc3c(F)cccc3Cl)c3ncccc3S2(=O)=O)cc1OC` [Example 94, 4-(2-Chloro-6-fluorobenzyl)-2-(3,4-dimethoxyphenyl)-2H-pyrido[2,3-e][1,2,4]thiadiazin-3(4H)-one 1,1-dioxide]: 0.776 nM; `COc1cc(F)c(CN2C(=O)N(c3ccc(OC)c(OC)c3)S(=O)(=O)c3cccnc32)c(F)c1` [Example 95, 4-(2,6-Difluoro-4-methoxybenzyl)-2-(3,4-dimethoxyphenyl)-2H-pyrido[2,3-e][1,2,4]thiadiazin-3(4H)-one 1,1-dioxide]: 0.129 nM; `COc1ccc(N2C(=O)N(Cc3ncc(F)cc3F)c3ncccc3S2(=O)=O)cc1OC` [Example 96, 4-[(3,5-Difluoropyridin-2-yl)methyl]-2-(3,4-dimethoxyphenyl)-2H-pyrido[2,3-e][1,2,4]thiadiazin-3(4H)-one 1,1-dioxide]: 13.2 nM. Regarding `COc1ccc(N2C(=O)N(Cc3c(F)cc(Cl)cc3F)c3ncccc3S2(=O)=O)cc1OC` [Example 97, 4-(4-Chloro-2,6-difluorobenzyl)-2-(3,4-dimethoxyphenyl)-2H-pyrido[2,3-e][1,2,4]thiadiazin-3(4H)-one 1,1-dioxide], the Ki was 0.661 nM. `COc1cc(N2C(=O)N(Cc3c(F)cc(F)cc3F)c3ncccc3S2(=O)=O)cc(OC)n1` [Example 98, 2-(2,6-Dimethoxypyridin-4-yl)-4-(2,4,6-trifluorobenzyl)-2H-pyrido[2,3-e][1,2,4]thiadiazin-3(4H)-one 1,1-dioxide]: the Ki was 1.48 nM. Regarding `COc1ccc(N2C(=O)N(Cc3c(F)cc(F)cc3F)c3ncccc3S2(=O)=O)nc1OC` [Example 99, 2-(5,6-Dimethoxypyridin-2-yl)-4-(2,4,6-trifluorobenzyl)-2H-pyrido[2,3-e][1,2,4]thiadiazin-3(4H)-one 1,1-dioxide], the Ki is 1.55 nM. As for `Cc1ccc(N2C(=O)N(Cc3c(F)cc(F)cc3F)c3ncccc3S2(=O)=O)cc1C` [Example 101, 2-(3,4-Dimethylphenyl)-4-(2,4,6-trifluorobenzyl)-2H-pyrido[2,3-e][1,2,4]thiadiazin-3(4H)-one 1,1-dioxide], the Ki was 3.47 nM.

`COc1cc(F)c(CN2C(=O)N(c3ccc(C)c(C)c3)S(=O)(=O)c3cccnc32)c(F)c1` [Example 102, 4-(2,6-Difluoro-4-methoxybenzyl)-2-(3,4-dimethylphenyl)-2H-pyrido[2,3-e][1,2,4]thiadiazin-3(4H)-one 1,1-dioxide]: the Ki is 0.776 nM. For the compound `Cc1cc(C)cc(N2C(=O)N(Cc3c(F)cc(F)cc3F)c3ncccc3S2(=O)=O)c1` [Example 103, 2-(3,5-Dimethylphenyl)-4-(2,4,6-trifluorobenzyl)-2H-pyrido[2,3-e][1,2,4]thiadiazin-3(4H)-one 1,1-dioxide], the Ki is 4.27 nM. In the case of `COc1ccc(N2C(=O)N(Cc3c(F)cc(F)cc3OC)c3ccccc3S2(=O)=O)cc1OC` [Example 104, 4-(2,4-Difluoro-6-methoxybenzyl)-2-(3,4-dimethoxyphenyl)-2H-1,2,4-benzothiadiazin-3(4H)-one 1,1-dioxide], the Ki is 7.08 nM. Next, `COc1ccc(N2C(=O)N(Cc3c(F)cc(F)cc3F)c3ccccc3S2(=O)=O)cc1OC` [Example 105, 2-(3,4-Dimethoxyphenyl)-4-(2,4,6-trifluorobenzyl)-2H-1,2,4-benzothiadiazin-3(4H)-one 1,1-dioxide]: 1.95 nM; `COc1ccc(N2C(=O)N(Cc3c(F)cc(C)cc3Cl)c3ccccc3S2(=O)=O)cc1OC` [Example 106, 4-(2-Chloro-6-fluoro-4-methylbenzyl)-2-(3,4-dimethoxyphenyl)-2H-1,2,4-benzothiadiazin-3(4H)-one 1,1-dioxide]: 0.741 nM. Next, `COc1ccc(N2C(=O)N(Cc3c(F)cc(F)cc3Cl)c3ccccc3S2(=O)=O)cc1OC` [Example 107, 4-(2-Chloro-4,6-difluorobenzyl)-2-(3,4-dimethoxyphenyl)-2H-1,2,4-benzothiadiazin-3(4H)-one 1,1-dioxide]: 1.05 nM. Next, `COc1cc(F)c(CN2C(=O)N(c3ccc(OC)c(OC)c3)S(=O)(=O)c3ccccc32)c(F)c1` [Example 108, 2-(3,4-Dimethoxyphenyl)-4-(2,6-difluoro-4-methoxybenzyl)-2H-1,2,4-benzothiadiazin-3(4H)-one 1,1-dioxide]: 0.468 nM; `COc1cc(F)c(CN2C(=O)N(c3cccc(SC)c3)S(=O)(=O)c3ccccc32)c(F)c1` [Example 109, 4-(2,6-Difluoro-4-methoxybenzyl)-2-[3-(methylsulfanyl)phenyl]-2H-1,2,4-benzothiadiazin-3(4H)-one 1,1-dioxide]: 3.24 nM. Consider `CSc1cccc(N2C(=O)N(Cc3c(F)cc(F)cc3Cl)c3ccccc3S2(=O)=O)c1` [Example 110, 4-(2-Chloro-4,6-difluorobenzyl)-2-[3-(methylsulfanyl)phenyl]-2H-1,2,4-benzothiadiazin-3(4H)-one 1,1-dioxide], for which the Ki is 2.69 nM. Next, `COc1cc(F)c(CN2C(=O)N(c3cccc(S(C)(=O)=O)c3)S(=O)(=O)c3ccccc32)c(F)c1` [Example 111, 4-(2,6-Difluoro-4-methoxybenzyl)-2-[3-(methylsulfonyl)phenyl]-2H-1,2,4-benzothiadiazin-3(4H)-one 1,1-dioxide]: 2.24 nM. Next, `CS(=O)(=O)c1cccc(N2C(=O)N(Cc3c(F)cc(F)cc3F)c3ccccc3S2(=O)=O)c1` [Example 112, 2-[3-(Methylsulfonyl)phenyl]-4-(2,4,6-trifluorobenzyl)-2H-1,2,4-benzothiadiazin-3(4H)-one 1,1-dioxide]: 26.9 nM; `COc1cc(F)c(CN2C(=O)N(c3ccc(OC)c(OC)c3)S(=O)(=O)c3ccccc32)c(Cl)c1` [Example 113, 4-(2-Chloro-6-fluoro-4-methoxybenzyl)-2-(3,4-dimethoxyphenyl)-2H-1,2,4-benzothiadiazin-3(4H)-one 1,1-dioxide]: 0.0912 nM. Consider `Cc1cc(N2C(=O)N(Cc3c(F)cc(F)cc3F)c3ccccc3S2(=O)=O)cc(C)c1O` [Example 114, 2-(4-Hydroxy-3,5-dimethylphenyl)-4-(2,4,6-trifluorobenzyl)-2H-1,2,4-benzothiadiazin-3(4H)-one 1,1-dioxide], for which the Ki was 12.9 nM. Next, `COc1c(C)cc(N2C(=O)N(Cc3c(F)cc(F)cc3F)c3ccccc3S2(=O)=O)cc1C` [Example 115, 2-(4-methoxy-3,5-dimethylphenyl)-4-(2,4,6-trifluorobenzyl)-2H-1,2,4-benzothiadiazin-3(4H)-one 1,1-dioxide]: 0.355 nM; `COc1ccc(N2C(=O)N(Cc3c(F)cc(O)cc3F)c3ccccc3S2(=O)=O)cc1OC` [Example 116, 4-(2,6-Difluoro-4-hydroxybenzyl)-2-(3,4-dimethoxyphenyl)-2H-1,2,4-benzothiadiazin-3(4H)-one 1,1-dioxide]: 1.15 nM. Take `O=C1N(Cc2c(F)cccc2Cl)c2ccccc2S(=O)(=O)N1CC1CCOCC1` [Example 117, 4-(2-Chloro-6-fluorobenzyl)-2-(tetrahydro-2H-pyran-4-ylmethyl)-2H-1,2,4-benzothiadiazin-3(4H)-one 1,1-dioxide]: the Ki was 372 nM. Next, `CC1(CN2C(=O)N(Cc3c(F)cccc3Cl)c3ccccc3S2(=O)=O)COC1` [Example 118, 4-(2-Chloro-6-fluorobenzyl)-2-[(3-methyloxetan-3-yl)methyl]-2H-1,2,4-benzothiadiazin-3(4H)-one 1,1-dioxide]: 372 nM. Next, `Cc1nc(CN2C(=O)N(Cc3c(F)cccc3F)c3ccccc3S2(=O)=O)cs1` [Example 119, 4-(2,6-Difluorobenzyl)-2-[(2-methyl-1,3-thiazol-4-yl)methyl]-2H-1,2,4-benzothiadiazin-3(4H)-one 1,1-dioxide]: 66.1 nM; `Cc1noc(C)c1CCN1C(=O)N(Cc2c(F)cccc2F)c2ccccc2S1(=O)=O` [Example 120, 4-(2,6-Difluorobenzyl)-2-[2-(3,5-dimethyl-1,2-oxazol-4-yl)ethyl]-2H-1,2,4-benzothiadiazin-3(4H)-one 1,1-dioxide]: 178 nM; `COc1ccnc(CN2C(=O)N(Cc3c(F)cccc3F)c3ccccc3S2(=O)=O)c1OC` [Example 121, 4-(2,6-Difluorobenzyl)-2-[(3,4-dimethoxypyridin-2-yl)methyl]-2H-1,2,4-benzothiadiazin-3(4H)-one 1,1-dioxide]: 87.1 nM. Next, `COc1ccc(N2C(=O)N(Cc3c(F)cccc3Cl)c3ccccc3S2(=O)=O)cn1` [Example 122, 4-(2-Chloro-6-fluorobenzyl)-2-(6-methoxypyridin-3-yl)-2H-1,2,4-benzothiadiazin-3(4H)-one 1,1-dioxide]: 16.6 nM.
